Results published in patent US9540343B2 (Gilead Sciences, Inc., priority 2011, dated 2017).

Experiments:
HIV-IIIb = experiment: Test A: Antiviral assay in MT4 cells; type: cell-based, HIV-1; details: Human immunodeficiency virus 1, IIIB, MT4, 120 h, read-out: % inhibition at 2 μM, percent inhibition of virus-induced cell killing, from dose response curve at 2 uM drug; MT-4 cells infected with HIV-IIIb, 5 days, CellTiter-Glo
in vitro = experiment: in vitro
How it was run: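 Cytoprotection read-out: CellTiter-Glo chemiluminescence after 5 days at 37 °C of HIV-IIIb-infected MT-4 cells (m.o.i. 0.003) with compound in 10-point 3-fold dilutions, quadruplicate, 10% FBS. Cytotoxicity (CC50) measured identically without virus.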

[1] = human, uninfected MT-4 cells, CC50 (nM), same protocol as Test A, CellTiter-Glo

SMILES	inhibition at 2 µM (HIV-IIIb)	CC50 at 5 days (in vitro; [1])	CC50 at 5 days (in vitro; human, CC50 (nM), uninfected MT-4 cells, same protocol as Test A, CellTiter-Glo)
COc1ccc2c(c1)C(CC(=O)N[C@@H](Cc1cc(F)cc(F)c1)c1ncccc1-c1ccc(F)c(C(N)=O)c1)C(=O)N2 (stereo partly drawn) [Example 202, 5-(2-((1S)-2-(3,5-difluorophenyl)-1-(2-(5-methoxy-2-oxoindolin-3-yl)acetamido)ethyl)pyridin-3-yl)-2-fluorobenzamide]	1%	> 53200 nM	
NC(=O)c1cc(-c2cccnc2[C@H](Cc2cc(F)cc(F)c2)NC(=O)Cn2nc3c(c2C(F)(F)F)COC3)ccc1F [Example 203D, (S)-5-(2-(2-(3,5-difluorophenyl)-1-(2-(3-(trifluoromethyl)-4,6-dihydro-2H-furo[3,4-c]pyrazol-2-yl)acetamido)ethyl)pyridin-3-yl)-2-fluorobenzamide]	0%	> 53200 nM	
NC(=O)c1cc(-c2cccnc2[C@H](Cc2cccc(F)c2)NC(=O)Cn2nc(C(F)(F)F)c3c2CCS(=O)(=O)C3)ccc1F [Example 204, (S)-5-(2-(1-(2-(5,5-dioxido-3-(trifluoromethyl)-6,7-dihydrothiopyrano[4,3-c]pyrazol-1(4H)-yl)acetamido)-2-(3-fluorophenyl)ethyl)pyridin-3-yl)-2-fluorobenzamide]	1%	> 53200 nM	
Cc1cc(C)c2c(c1)C(CC(=O)N[C@@H](Cc1cc(F)cc(F)c1)c1ncccc1-c1ccc(F)c(C(N)=O)c1)C(=O)N2 (stereo partly drawn) [Example 205, 5-(2-((1S)-2-(3,5-difluorophenyl)-1-(2-(5,7-dimethyl-2-oxoindolin-3-yl)acetamido)ethyl)pyridin-3-yl)-2-fluorobenzamide]	12%	13100 nM	
O=C(Cn1nc(C(F)F)c2c1C(F)(F)C1CC21)N[C@@H](Cc1cc(F)cc(F)c1)c1ncccc1-c1ccc(OCC2CC2)cc1 (stereo partly drawn) [Example 206, N—((S)-1-(3-(4-(cyclopropylmethoxy)phenyl)pyridin-2-yl)-2-(3,5-difluorophenyl)ethyl)-2-(3-(difluoromethyl)-5,5-difluoro-3b,4,4a,5-tetrahydro-1H-cyclopropa[3,4]cyclopenta[1,2-c]pyrazol-1-yl)acetamide]	54%	20000 nM	
CC(C)Cc1cc(C(F)(F)F)nn1CC(=O)N[C@@H](Cc1cc(F)cc(F)c1)c1ncccc1-c1ccc(F)c(C(N)=O)c1 [Example 207C, (S)-5-(2-(2-(3,5-difluorophenyl)-1-(2-(5-isobutyl-3-(trifluoromethyl)-1H-pyrazol-1-yl)acetamido)ethyl)pyridin-3-yl)-2-fluorobenzamide]	16%	13200 nM	
COCc1cc(C(F)(F)F)nn1CC(=O)N[C@@H](Cc1cc(F)cc(F)c1)c1ncccc1-c1ccc(F)c(C(N)=O)c1 [Example 208D]	2%		> 53200 nM
NC(=O)c1cc(-c2cccnc2[C@H](Cc2cc(F)cc(F)c2)NC(=O)Cn2nc(C(N)=O)c3c2CC2CC32)ccc1F (stereo partly drawn) [Example 209, 1-(2-(((S)-1-(3-(3-carbamoyl-4-fluorophenyl)pyridin-2-yl)-2-(3,5-difluorophenyl)ethyl)amino)-2-oxoethyl)-3b,4,4a,5-tetrahydro-1H-cyclopropa[3,4]cyclopenta[1,2-c]pyrazole-3-carboxamide]	51%	> 53200 nM	
CN1Cc2nn(CC(=O)N[C@@H](Cc3cc(F)cc(F)c3)c3ncccc3-c3ccc(F)c(C(N)=O)c3)c(C(F)(F)F)c2C1 [Example 210, (S)-5-(2-(2-(3,5-difluorophenyl)-1-(2-(5-methyl-3-(trifluoromethyl)-5,6-dihydropyrrolo[3,4-c]pyrazol-2(4H)-yl)acetamido)ethyl)pyridin-3-yl)-2-fluorobenzamide]	0%	> 53200 nM	
N#Cc1nn(CC(=O)N[C@@H](Cc2cc(F)cc(F)c2)c2ncccc2-c2ccc(F)c(C(N)=O)c2)c2c1CCC2 [Example 211C, (S)-5-(2-(1-(2-(3-cyano-5,6-dihydrocyclopenta[c]pyrazol-1(4H)-yl)acetamido)-2-(3,5-difluorophenyl)ethyl)pyridin-3-yl)-2-fluorobenzamide]	83%	36100 nM	
NC(=O)c1cc(-c2cccnc2[C@H](Cc2cc(F)cc(F)c2)NC(=O)Cn2nc(C(F)F)c3c2C(O)C2CC32)ccc1F (stereo partly drawn) [Example 212, 5-(2-((1S)-1-(2-(3-(difluoromethyl)-5-hydroxy-3b,4,4a,5-tetrahydro-1H-cyclopropa[3,4]cyclopenta[1,2-c]pyrazol-1-yl)acetamido)-2-(3,5-difluorophenyl)ethyl)pyridin-3-yl)-2-fluorobenzamide]	69%	> 53200 nM	
NC(=O)c1cc(-c2cccnc2[C@H](Cc2cccc(F)c2)NC(=O)Cn2nc(C(F)(F)F)c3ccccc32)ccc1F [Example 213C, (S)-2-fluoro-5-(2-(2-(3-fluorophenyl)-1-(2-(3-(trifluoromethyl)-1H-indazol-1-yl)acetamido)ethyl)pyridin-3-yl)benzamide]	14%	15900 nM	
NC(=O)c1cc(-c2cccnc2[C@H](Cc2cc(F)cc(F)c2)NC(=O)Cc2cccc3ccccc23)ccc1F [Example 214, (S)-5-(2-(2-(3,5-difluorophenyl)-1-(2-(naphthalen-1-yl)acetamido)ethyl)pyridin-3-yl)-2-fluorobenzamide]	8%	22200 nM	
COCCOc1ccc(-c2cccnc2[C@H](Cc2cc(F)cc(F)c2)NC(=O)Cn2nc(C(F)F)c3c2C(F)(F)C2CC32)cc1 (stereo partly drawn) [Example 217, 2-(3-(difluoromethyl)-5,5-difluoro-3b,4,4a,5-tetrahydro-1H-cyclopropa[3,4]cyclopenta[1,2-c]pyrazol-1-yl)-N—((S)-2-(3,5-difluorophenyl)-1-(3-(4-(2-methoxyethoxy)phenyl)pyridin-2-yl)ethyl)acetamide]	92%	29600 nM	
NC(=O)c1cc(-c2ccc[n+]([O-])c2[C@H](Cc2cc(F)cc(F)c2)NC(=O)Cn2nc(C(F)(F)F)c3c2CS(=O)(=O)C3)ccc1F [Example 218, (S)-3-(3-carbamoyl-4-fluorophenyl)-2-(2-(3,5-difluorophenyl)-1-(2-(5,5-dioxido-3-(trifluoromethyl)-4,6-dihydro-1H-thieno[3,4-c]pyrazol-1-yl)acetamido)ethyl)pyridine 1-oxide]	0%	> 53200 nM	
CC(=O)N1Cc2c(C(F)(F)F)nn(CC(=O)N[C@@H](Cc3cc(F)cc(F)c3)c3ncccc3-c3ccc(F)c(C(N)=O)c3)c2C1 [Example 219, (S)-5-(2-(1-(2-(5-acetyl-3-(trifluoromethyl)-5,6-dihydropyrrolo[3,4-c]pyrazol-1(4H)-yl)acetamido)-2-(3,5-difluorophenyl)ethyl)pyridin-3-yl)-2-fluorobenzamide]	1%	> 53200 nM	
NC(=O)c1cc(-c2cccnc2[C@H](Cc2cc(F)cc(F)c2)NC(=O)Cn2nc3c(c2C(F)F)C2CC2C3=O)ccc1F (stereo partly drawn) [Example 220B, 5-(2-((1S)-1-(2-(3-(difluoromethyl)-5-oxo-3b,4,4a,5-tetrahydro-2H-cyclopropa[3,4]cyclopenta[1,2-c]pyrazol-2-yl)acetamido)-2-(3,5-difluorophenyl)ethyl)pyridin-3-yl)-2-fluorobenzamide]	70%	39200 nM	
Cc1ccc2c(c1C)NC(=O)C2CC(=O)N[C@@H](Cc1cc(F)cc(F)c1)c1ncccc1-c1ccc(F)c(C(N)=O)c1 (stereo partly drawn) [Example 221, 5-(2-((1S)-2-(3,5-difluorophenyl)-1-(2-(6,7-dimethyl-2-oxoindolin-3-yl)acetamido)ethyl)pyridin-3-yl)-2-fluorobenzamide]	1%	40500 nM	
NC(=O)c1cc(-c2cccnc2[C@H](Cc2cccc(F)c2)NC(=O)Cn2nc(C(F)(F)F)cc2Br)ccc1F [Example 222B, (S)-5-(2-(1-(2-(5-bromo-3-(trifluoromethyl)-1H-pyrazol-1-yl)acetamido)-2-(3-fluorophenyl)ethyl)pyridin-3-yl)-2-fluorobenzamide]	21%	25600 nM	
CC(C)Oc1ccc(-c2cccnc2[C@H](Cc2cc(F)cc(F)c2)NC(=O)Cn2nc(C(F)F)c3c2C(F)(F)C2CC32)cc1 (stereo partly drawn) [Example 224, 2-(3-(difluoromethyl)-5,5-difluoro-3b,4,4a,5-tetrahydro-1H-cyclopropa[3,4]cyclopenta[1,2-c]pyrazol-1-yl)-N—((S)-2-(3,5-difluorophenyl)-1-(3-(4-isopropoxyphenyl)pyridin-2-yl)ethyl)acetamide]	17%	20400 nM	
NC(=O)c1cccc(-c2cccnc2[C@H](Cc2cc(F)cc(F)c2)NC(=O)C2CC23C(=O)Nc2ccccc23)c1 (stereo partly drawn) [Example 225, N—((S)-1-(3-(3-carbamoylphenyl)pyridin-2-yl)-2-(3,5-difluorophenyl)ethyl)-2′-oxospiro[cyclopropane-1,3′-indoline]-2-carboxamide]	15%	23000 nM	
NC(=O)c1cccc(-c2cccnc2[C@H](Cc2cc(F)cc(F)c2)NC(=O)Cn2ccc3cnc(N)nc32)c1 [Example 226C, (S)-3-(2-(1-(2-(2-amino-7H-pyrrolo[2,3-d]pyrimidin-7-yl)acetamido)-2-(3,5-difluorophenyl)ethyl)pyridin-3-yl)benzamide]	0%	> 53000 nM	
CC(C)(C)OC(=O)N1Cc2c(C(F)(F)F)nn(CC(=O)N[C@@H](Cc3cc(F)cc(F)c3)c3ncccc3-c3ccc(F)c(C(N)=O)c3)c2C1 [Example 227, (S)-tert-butyl 1-(2-((1-(3-(3-carbamoyl-4-fluorophenyl)pyridin-2-yl)-2-(3,5-difluorophenyl)ethyl)amino)-2-oxoethyl)-3-(trifluoromethyl)-4,6-dihydropyrrolo[3,4-c]pyrazole-5(1H)-carboxylate]	1%	14300 nM	
